The source of these data is paper PMC10610134, “Verubulin (Azixa) Analogues with Increased Saturation: Synthesis, SAR and Encapsulation in Biocompatible Nanocontainers Based on Ca^2+ or Mg^2+ Cross-Linked Alginate” (Pharmaceuticals, 2023).

Data set [1] deals with human lung epithelial carcinoma cell line A549. Put plainly: MTT cytotoxicity assay, A549. The class given is cell-based. Particulars: A549, 64 h treatment, MTT, read-out: IC50, nM A549. The source says: (§1) The obtained series of verubulin analogues 2a–r (which also included three by-products isolated in the reactions according to Scheme 2) were initially evaluated for cytotoxicity against commonly used human breast cancer cell line MCF7′ (fast-growth subclone), human lung epithelial carcinoma cell line A549 and etiologically non-cancer immortalized lung fibroblast cell line VA13 (WI38 subline 2RA). Cytotoxicity against immortalized human embryonic kidney cell line HEK293T, characterized by a high growth rate, was also studied regarding cytotoxicity against non-cancerous fast-growth cells. A standard MTT assay was performed; verubulin (1) served as a positive reference. The data obtained are presented in Table 1 (for dose–response curves, see Supplementary Materials).
(§2) Human breast cancer cell line MCF7′ and human lung adenocarcinoma cell line A549 were kindly provided by Dr. S. Dmitriev (Lomonosov Moscow State University), immortalized human fibroblast cell line VA13 (WI38 subline 2RA) was kindly provided by Dr. M. Rubtsova (Lomonosov Moscow State University), human embryonic kidney HEK293T cell line was kindly provided by Dr. E. Knyazhanskaya (Lomonosov Moscow State University). MCF7′, VA13, A549 and HEK293T cell lines were maintained in DMEM/F-12 (Thermo Fisher Scientific, Waltham, MA, USA) culture medium containing 10% fetal bovine serum (Thermo Fisher Scientific, Waltham, MA, USA) and 50 μg/mL penicillin and 0.05 mg/mL streptomycin at 37 °C (Thermo Fisher Scientific, Waltham, MA, USA) in 5% CO2. Cells were maintained at 37 °C in a humidified MCO-18AC incubator (Sanyo, Tokyo, Japan) supplied with 5% CO2. Cell cultures were tested for the absence of mycoplasma and validated by STR.
(§3) The cytotoxicity of the substances was tested using the 3-(4,5-dimethylthiazol-2-yl)2,5-diphenyl tetrazolium bromide (MTT) assay with some modifications. A total of 2500 cells per well for the MCF7′, HEK293T, A549 cell lines or 4000 cells per well for the VA-13 cell line were plated out in 135 μL of DMEM-F12 media (Gibco, Thermo Fisher Scientific, Waltham, MA, USA) in a 96-well plate and incubated in the 5% CO2 incubator for the first 20 h without treatment. Then, 15.8 μL of media–DMSO solutions of tested substances (final DMSO concentrations in the media were 0.5% or less) was added to the cells (triplicate each) and cells were treated for 64 h with 0.023 mg/L–50 mg/L (eight dilutions) of compounds 2f,n,o,r; 1.14 μg/L–2.5 mg/L (eight dilutions) of compounds 2a,b,d,g,h,k,l,p,q; 57.2 ng/L–125 μg/L (eight dilutions) of compounds 2e,i,j; 22.9 ng/L–50 μg/L (eight dilutions) of compounds 1,2c,m. Doxorubicin was used as a control substance. Then, the MTT reagent (Paneco LLC, Moscow, Russia) was added to cells up to a final concentration of 0.5 g/L (10 × stock solution in PBS was used) and incubated for 2 h at 37 °C in the incubator, under an atmosphere of 5% CO2. Then, the MTT solution was discarded, and 140 μL of DMSO (PharmaMed LLC, Moscow, Russia) was added. The plates were swayed on a shaker (120 rpm) to dissolve the formazan. The absorbance was measured using a microplate reader (VICTOR X5 Light Plate Reader, PerkinElmer, Waltham, MA, USA) at a wavelength of 555 nm (in order to measure formazan concentration). The results were used to construct dose–response graphs and to estimate IC50 values (IC50 is the concentration resulting in half of the maximal cytotoxic effect) with GraphPad Prism V, GraphPadSoftware, Inc., San Diego, CA, USA.
On the technique in general: Tetrazolium assays rely on reduction of a dye to a coloured formazan, in cell work by metabolically active cells.

For data set [2], the system named is A549 cell line. Kind of data set: MTT assay of nanocontainer formulations, A549. The class given is cell-based. Particulars: Homo sapiens, 48 h treatment, 2c concentration in formulations = 0.1 × COO− concentration. Here is the method:
The MTT assay was carried out on the A549 cell line and non-tumor hTERT-immortalized human fibroblasts for 48 h (Table 2; for cell survival curves, see Supplementary Materials).
Lung adenocarcinoma A549, breast adenocarcinoma MDA-MB-231 and non-tumor fibroblasts immortalized with h-TERT cell lines were obtained from the American Type Culture Collection (Manassas, VA, USA). Cells were routinely propagated in Dulbecco’s modified Eagle’s medium (DMEM) supplemented with 10% fetal bovine serum (HyClone, Logan, UT, USA), 2 mM L-glutamine, 100 U/mL penicillin and 100 μg/mL streptomycin (PanEco, Moscow, Russia) at 37 °C, 5% CO2 in a humidified atmosphere. Cells in the logarithmic phase of growth were used in the experiments.
The cytotoxicity of compounds for human cell lines (A549, MDA-MB-231, non-tumor fibroblasts) was assessed in MTT assays. […]
Cytotoxicity was assessed in a formazan conversion assay (MTT test) after a 48 h exposure. After the completion of drug exposure, 0.5 mg/mL 3-(4,5-dimethylthiazol-2-yl)-2,5-diphenyltetrazolium bromide (MTT reagent) was added to cells for 2 h, the culture medium was removed, cells were resuspended in 100 μL DMSO and the optical densities were measured on a Multiscan FC plate spectrophotometer (Thermo Fisher Scientific, Waltham, MA, USA) at a wavelength of 571 nm. […]

Data set [3] deals with MCF7′, A549, VA13, HEK293T cell lines. Put plainly: MTT cytotoxicity, SAR statements over the cell line panel. It is filed as cell-based, human.
Description: as §1, §3

The test system of data set [4] is tubulin (Tb) and microtubule-associated proteins (MAPs) from mouse brains. Put plainly: Tubulin + MAP polymerization assay. It is filed as biochemical. Particulars: GTP-dependent polymerization, read-out: IC50 of tubulin polymerization (initial rates, optical density at 355 nm).
Data set [5] concerns immortalized human embryonic kidney cell line HEK293T. Kind of data set: MTT cytotoxicity assay, HEK293T. It is filed as cell-based. Particulars: HEK-293T, 64 h treatment, MTT, read-out: IC50, nM HEK293T.
Description: as §1, §2, §3

In general, IC50 refers to the point on the concentration scale where inhibition reaches its midpoint. For the molecule `COc1ccc(N(C)c2nc(C)nc3c2CCCC3)cc1` [Compound 2c, N-(4-methoxyphenyl)-N,2-dimethyl-5,6,7,8-tetrahydroquinazolin-4-amine], the IC50 in data set [1] worked out at 2.7 ± 0.4 nM; in data set [2] it was 0.6 ± 0.06 µM; in data set [4], 7200 ± 1900 nM; in data set [5] it was 2.9 ± 0.5 nM. The “cytotoxicity, in words” value in data set [3] (MTT, 64 h) is “retained high cytotoxicity of the parent molecule”. Also, the “selectivity towards tumor cells” value in data set [3] (pair A549/VA13) is listed as “no selectivity”.
